Experimental data reported in ChEMBL document CHEMBL2321869, “Ion channels as therapeutic targets: a drug discovery perspective” (J Med Chem, 2013).

Key:
[1] = target: Sodium channel protein type 10 subunit alpha (Homo sapiens, UniProt Q9Y5Y9); assay: Inhibition of voltage-gated Na channel 1.8 (unknown origin)
[2] = target: T1, Potassium channel subfamily K member 2 (Homo sapiens, UniProt O95069); assay: Inhibition of human TREK-1 expressed in HEK293 cells by patch-clamp technique; assay type: cell-based
[3] = target: T1, Potassium channel subfamily K member 2; assay: Inhibition of TREK-1 (unknown origin)
[4] = species: Mus musculus; assay: Selectivity ratio of EC50 for mouse voltage-gated K channel 1.3 to EC50 for mouse voltage-gated K channel 1.7
[5] = species: Mus musculus; assay: Selectivity ratio of EC50 for mouse voltage-gated K channel 1.3 to EC50 for mouse voltage-gated K channel 1.1
[6] = Selectivity ratio of EC50 for mouse voltage-gated K channel 1.3 to EC50 for rat voltage-gated K channel 1.2
[7] = Selectivity ratio of EC50 for mouse voltage-gated K channel 1.3 to EC50 for human voltage-gated K channel 1.4
[8] = target: Neuronal acetylcholine receptor; alpha4/beta2 (Homo sapiens, UniProt P17787+P43681); assay: Agonist activity at human alpha4beta2 nAChR expressed in HEK293 cells incubated for 5 mins measured every second for 1 mins followed by every 5 secs for 4 mins by calcium flux assay; assay type: cell-based
[9] = target: Small conductance calcium-activated potassium channel protein 3 (Homo sapiens, UniProt Q9UGI6); assay: Inhibition of human Kca 2.3 expressed in HEK293 cells by patch clamp technique; assay type: cell-based
[10] = target: P2X2/P2X3 heterotrimeric receptor (Homo sapiens, UniProt P56373+Q9UBL9); assay: Antagonist activity at human P2X2/3 receptor; assay type: protein-complex assay
[11] = Inhibition of AMPA receptor (unknown origin); set-up: species or system Homo sapiens
[12] = target: T2, Glutamate receptor ionotropic, kainate 1 (Homo sapiens, UniProt P39086); assay: Inhibition of GluK1 receptor (unknown origin)
[13] = Agonist activity at AMPA receptor in rat hippocampal neurons by patch clamp technique; assay type: tissue-based; conditions: Hippocampus
[14] = Agonist activity at AMPA receptor in rat DRG neurons by patch clamp technique; conditions: DRG neuron
[15] = target: Voltage-gated potassium channel KCNC1 (Rattus norvegicus, UniProt P25122); assay: Inhibition of rat voltage-gated K channel 3.1 expressed in CHO cells by patch clamp assay; assay type: cell-based
[16] = target: T2, Glutamate receptor ionotropic, kainate 1; assay: Agonist activity at GluK1 (unknown origin)
[17] = target: Inward rectifier potassium channel 2 (Mus musculus, UniProt P35561); assay: Inhibition of mouse Kir2.1 expressed in HEK293 cells by patch clamp technique; assay type: cell-based
[18] = target: Potassium voltage-gated channel subfamily KQT member 2 (Homo sapiens, UniProt O43526); assay: Positive modulatory activity at voltage-gated K channel 7.2 (unknown origin)
[19] = target: Potassium voltage-gated channel subfamily KQT member 5 (Homo sapiens, UniProt Q9NR82); assay: Positive modulatory activity at voltage-gated K channel 7.5 (unknown origin)
[20] = target: Potassium voltage-gated channel subfamily KQT member 4 (Homo sapiens, UniProt P56696); assay: Positive modulatory activity at voltage-gated K channel 7.4 (unknown origin)
[21] = target: Calcium-activated potassium channel subunit alpha-1 (Homo sapiens, UniProt Q12791); assay: Positive modulation of Kca 1.1 (unknown origin)
[22] = target: Potassium voltage-gated channel subfamily KQT member 3 (Homo sapiens, UniProt O43525); assay: Positive modulatory activity at voltage-gated K channel 7.3 (unknown origin)
[23] = target: T3, Gamma-aminobutyric acid receptor subunit alpha-3 (Homo sapiens, UniProt P34903); assay: Positive allosteric modulation of GABAA alpha3 (unknown origin)
T3 sequence (P34903 whole entry): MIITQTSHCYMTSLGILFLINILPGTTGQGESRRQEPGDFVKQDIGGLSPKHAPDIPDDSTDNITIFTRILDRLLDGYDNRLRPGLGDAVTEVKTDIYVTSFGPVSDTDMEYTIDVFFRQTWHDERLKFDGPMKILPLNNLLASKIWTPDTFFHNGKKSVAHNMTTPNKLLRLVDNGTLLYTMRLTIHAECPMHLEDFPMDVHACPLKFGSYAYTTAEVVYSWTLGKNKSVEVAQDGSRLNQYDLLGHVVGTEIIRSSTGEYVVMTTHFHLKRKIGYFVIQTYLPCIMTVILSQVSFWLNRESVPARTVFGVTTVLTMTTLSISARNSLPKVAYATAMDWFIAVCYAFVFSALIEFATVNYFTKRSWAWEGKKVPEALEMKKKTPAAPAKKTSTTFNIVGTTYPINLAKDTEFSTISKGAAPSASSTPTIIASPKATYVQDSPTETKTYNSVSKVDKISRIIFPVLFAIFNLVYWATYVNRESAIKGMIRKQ

[24] = target: T4, Gamma-aminobutyric acid receptor subunit alpha-1 (Homo sapiens, UniProt P14867); assay: Positive allosteric modulation of GABAA alpha1 (unknown origin)
T4 sequence (P14867 whole entry): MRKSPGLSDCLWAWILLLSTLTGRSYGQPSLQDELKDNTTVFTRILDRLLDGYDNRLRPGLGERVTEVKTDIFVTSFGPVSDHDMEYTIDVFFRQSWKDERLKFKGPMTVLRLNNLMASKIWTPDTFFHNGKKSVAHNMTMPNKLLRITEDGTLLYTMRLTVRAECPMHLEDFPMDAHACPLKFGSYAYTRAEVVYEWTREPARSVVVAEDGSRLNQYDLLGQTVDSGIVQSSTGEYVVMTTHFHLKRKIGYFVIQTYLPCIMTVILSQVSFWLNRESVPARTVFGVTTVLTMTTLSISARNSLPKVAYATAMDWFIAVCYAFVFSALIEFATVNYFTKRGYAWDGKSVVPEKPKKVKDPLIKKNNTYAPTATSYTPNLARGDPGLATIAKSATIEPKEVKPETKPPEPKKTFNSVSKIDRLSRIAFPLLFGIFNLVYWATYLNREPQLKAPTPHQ

[25] = target: T5, Gamma-aminobutyric acid receptor subunit alpha-2 (Homo sapiens, UniProt P47869); assay: Positive allosteric modulation of GABAA alpha2 (unknown origin)
T5 sequence (P47869 whole entry): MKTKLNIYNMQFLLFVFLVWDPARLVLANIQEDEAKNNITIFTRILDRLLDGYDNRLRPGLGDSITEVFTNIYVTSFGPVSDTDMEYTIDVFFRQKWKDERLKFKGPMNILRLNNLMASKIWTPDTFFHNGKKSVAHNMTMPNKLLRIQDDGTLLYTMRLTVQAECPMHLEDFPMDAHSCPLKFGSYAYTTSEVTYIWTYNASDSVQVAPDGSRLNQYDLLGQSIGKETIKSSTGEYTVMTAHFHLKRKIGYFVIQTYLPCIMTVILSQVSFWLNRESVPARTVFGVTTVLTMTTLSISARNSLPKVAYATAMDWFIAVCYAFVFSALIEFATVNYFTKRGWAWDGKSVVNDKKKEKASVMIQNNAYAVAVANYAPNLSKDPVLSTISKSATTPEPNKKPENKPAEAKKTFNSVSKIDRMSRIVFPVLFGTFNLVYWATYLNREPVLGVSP

[26] = target: T6, Gamma-aminobutyric acid receptor subunit alpha-5 (Homo sapiens, UniProt P31644); assay: Positive allosteric modulation of GABAA alpha5 (unknown origin)
T6 sequence (P31644 whole entry): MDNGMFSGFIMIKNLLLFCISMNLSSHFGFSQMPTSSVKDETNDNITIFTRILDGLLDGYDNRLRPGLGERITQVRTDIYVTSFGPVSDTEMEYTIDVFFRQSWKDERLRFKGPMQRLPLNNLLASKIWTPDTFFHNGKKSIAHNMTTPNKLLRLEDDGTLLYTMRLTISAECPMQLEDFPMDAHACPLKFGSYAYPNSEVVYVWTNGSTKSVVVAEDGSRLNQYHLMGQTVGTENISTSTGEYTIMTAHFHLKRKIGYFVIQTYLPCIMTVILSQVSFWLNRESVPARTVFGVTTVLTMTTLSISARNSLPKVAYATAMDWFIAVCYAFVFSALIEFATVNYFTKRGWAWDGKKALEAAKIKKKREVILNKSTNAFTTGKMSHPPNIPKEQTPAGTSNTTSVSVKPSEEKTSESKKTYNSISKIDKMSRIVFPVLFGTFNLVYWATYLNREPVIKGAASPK

T1 sequence (O95069 whole entry): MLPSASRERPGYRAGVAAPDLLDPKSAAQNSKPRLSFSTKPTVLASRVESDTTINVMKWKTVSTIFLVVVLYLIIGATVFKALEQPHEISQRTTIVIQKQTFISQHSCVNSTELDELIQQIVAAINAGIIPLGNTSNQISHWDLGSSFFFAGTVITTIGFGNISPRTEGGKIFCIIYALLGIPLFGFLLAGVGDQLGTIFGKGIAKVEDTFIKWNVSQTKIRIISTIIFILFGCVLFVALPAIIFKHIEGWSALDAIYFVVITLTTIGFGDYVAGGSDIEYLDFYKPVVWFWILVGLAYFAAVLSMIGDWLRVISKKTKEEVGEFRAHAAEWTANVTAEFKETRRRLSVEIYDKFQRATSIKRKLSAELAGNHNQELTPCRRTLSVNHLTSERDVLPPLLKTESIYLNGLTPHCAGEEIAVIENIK
T2 sequence (P39086 whole entry): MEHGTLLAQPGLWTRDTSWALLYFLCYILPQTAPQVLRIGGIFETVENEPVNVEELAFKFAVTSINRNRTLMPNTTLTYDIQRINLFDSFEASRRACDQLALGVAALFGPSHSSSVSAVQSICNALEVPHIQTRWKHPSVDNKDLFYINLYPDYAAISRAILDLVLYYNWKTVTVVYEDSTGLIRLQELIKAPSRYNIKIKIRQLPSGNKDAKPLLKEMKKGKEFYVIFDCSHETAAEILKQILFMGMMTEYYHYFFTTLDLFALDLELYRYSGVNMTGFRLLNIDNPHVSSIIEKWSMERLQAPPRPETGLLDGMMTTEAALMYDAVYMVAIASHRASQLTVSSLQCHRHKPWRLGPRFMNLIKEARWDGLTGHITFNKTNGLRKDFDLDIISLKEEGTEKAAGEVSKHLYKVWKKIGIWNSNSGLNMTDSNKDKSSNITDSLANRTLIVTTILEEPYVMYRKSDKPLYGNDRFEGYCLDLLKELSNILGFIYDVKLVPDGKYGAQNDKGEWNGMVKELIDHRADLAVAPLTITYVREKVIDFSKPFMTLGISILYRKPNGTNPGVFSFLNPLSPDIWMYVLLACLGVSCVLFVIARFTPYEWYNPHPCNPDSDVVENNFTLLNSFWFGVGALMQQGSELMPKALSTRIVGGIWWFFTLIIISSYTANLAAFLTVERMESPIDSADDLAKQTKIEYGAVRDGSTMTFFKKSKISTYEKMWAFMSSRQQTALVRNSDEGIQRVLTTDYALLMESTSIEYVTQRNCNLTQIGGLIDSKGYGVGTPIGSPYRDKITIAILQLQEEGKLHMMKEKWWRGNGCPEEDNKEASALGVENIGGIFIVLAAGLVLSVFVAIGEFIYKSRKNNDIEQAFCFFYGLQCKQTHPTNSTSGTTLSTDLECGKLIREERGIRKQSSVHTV
Calcium-activated potassium channel subunit alpha-1, sequence (Q12791 whole entry): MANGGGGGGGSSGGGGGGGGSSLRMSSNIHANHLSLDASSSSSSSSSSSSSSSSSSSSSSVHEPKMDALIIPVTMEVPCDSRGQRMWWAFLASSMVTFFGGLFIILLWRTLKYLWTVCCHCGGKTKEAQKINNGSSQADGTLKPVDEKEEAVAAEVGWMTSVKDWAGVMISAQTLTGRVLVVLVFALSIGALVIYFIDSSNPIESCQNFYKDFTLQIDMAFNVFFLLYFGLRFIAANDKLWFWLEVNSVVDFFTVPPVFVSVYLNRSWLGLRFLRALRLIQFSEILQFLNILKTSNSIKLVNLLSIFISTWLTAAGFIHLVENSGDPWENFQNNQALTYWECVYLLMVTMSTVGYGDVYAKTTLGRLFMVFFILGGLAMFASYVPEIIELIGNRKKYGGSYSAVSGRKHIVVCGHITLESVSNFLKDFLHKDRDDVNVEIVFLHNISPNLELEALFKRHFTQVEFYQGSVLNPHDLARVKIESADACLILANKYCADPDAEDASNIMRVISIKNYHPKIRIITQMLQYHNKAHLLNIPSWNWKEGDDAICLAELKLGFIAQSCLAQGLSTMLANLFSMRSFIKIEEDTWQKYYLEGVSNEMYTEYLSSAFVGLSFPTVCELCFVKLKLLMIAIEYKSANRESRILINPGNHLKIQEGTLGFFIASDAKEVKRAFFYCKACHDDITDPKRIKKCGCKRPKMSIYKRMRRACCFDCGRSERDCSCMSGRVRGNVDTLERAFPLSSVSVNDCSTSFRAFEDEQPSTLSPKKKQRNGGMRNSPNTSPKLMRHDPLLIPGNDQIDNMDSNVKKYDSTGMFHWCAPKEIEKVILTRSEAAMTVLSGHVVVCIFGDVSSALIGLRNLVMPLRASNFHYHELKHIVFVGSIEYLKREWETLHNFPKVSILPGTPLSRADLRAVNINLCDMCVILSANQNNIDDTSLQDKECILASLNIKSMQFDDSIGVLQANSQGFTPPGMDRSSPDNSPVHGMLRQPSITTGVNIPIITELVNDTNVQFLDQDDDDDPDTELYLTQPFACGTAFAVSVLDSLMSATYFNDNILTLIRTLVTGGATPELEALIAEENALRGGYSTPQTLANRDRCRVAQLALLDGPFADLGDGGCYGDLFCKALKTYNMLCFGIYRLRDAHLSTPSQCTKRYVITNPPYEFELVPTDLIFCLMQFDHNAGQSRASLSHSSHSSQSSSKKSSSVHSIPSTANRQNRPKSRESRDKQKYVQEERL
Voltage-gated potassium channel KCNC1, sequence (P25122 whole entry): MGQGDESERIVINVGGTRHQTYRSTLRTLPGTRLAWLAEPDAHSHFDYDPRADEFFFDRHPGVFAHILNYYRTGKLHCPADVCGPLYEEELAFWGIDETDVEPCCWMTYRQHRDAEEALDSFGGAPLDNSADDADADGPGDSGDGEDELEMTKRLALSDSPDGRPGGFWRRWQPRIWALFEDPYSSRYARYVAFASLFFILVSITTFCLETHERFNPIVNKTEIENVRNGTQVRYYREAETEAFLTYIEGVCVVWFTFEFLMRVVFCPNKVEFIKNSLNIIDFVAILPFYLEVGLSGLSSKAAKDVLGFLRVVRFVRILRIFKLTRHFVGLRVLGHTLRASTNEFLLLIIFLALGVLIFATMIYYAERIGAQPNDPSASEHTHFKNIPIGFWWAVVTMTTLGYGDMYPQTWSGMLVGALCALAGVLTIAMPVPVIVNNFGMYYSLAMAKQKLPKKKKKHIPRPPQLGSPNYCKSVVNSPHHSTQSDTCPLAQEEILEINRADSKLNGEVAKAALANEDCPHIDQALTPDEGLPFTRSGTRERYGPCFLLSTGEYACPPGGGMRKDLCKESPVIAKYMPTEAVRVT
P2X2/P2X3 heterotrimeric receptor, sequence (Q9UBL9 whole entry): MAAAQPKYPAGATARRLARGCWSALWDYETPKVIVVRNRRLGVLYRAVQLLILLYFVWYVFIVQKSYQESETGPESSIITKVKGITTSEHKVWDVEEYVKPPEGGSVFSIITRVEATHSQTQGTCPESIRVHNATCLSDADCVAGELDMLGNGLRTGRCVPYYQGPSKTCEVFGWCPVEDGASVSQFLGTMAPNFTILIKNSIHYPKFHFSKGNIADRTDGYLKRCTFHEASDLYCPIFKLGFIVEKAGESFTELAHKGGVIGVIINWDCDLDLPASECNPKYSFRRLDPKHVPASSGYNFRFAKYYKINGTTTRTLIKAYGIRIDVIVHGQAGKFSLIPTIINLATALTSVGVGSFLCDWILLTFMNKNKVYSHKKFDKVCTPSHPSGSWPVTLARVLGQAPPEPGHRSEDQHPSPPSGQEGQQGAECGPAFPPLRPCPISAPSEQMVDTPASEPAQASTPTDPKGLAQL
P2X2/P2X3 heterotrimeric receptor, sequence (P56373 whole entry): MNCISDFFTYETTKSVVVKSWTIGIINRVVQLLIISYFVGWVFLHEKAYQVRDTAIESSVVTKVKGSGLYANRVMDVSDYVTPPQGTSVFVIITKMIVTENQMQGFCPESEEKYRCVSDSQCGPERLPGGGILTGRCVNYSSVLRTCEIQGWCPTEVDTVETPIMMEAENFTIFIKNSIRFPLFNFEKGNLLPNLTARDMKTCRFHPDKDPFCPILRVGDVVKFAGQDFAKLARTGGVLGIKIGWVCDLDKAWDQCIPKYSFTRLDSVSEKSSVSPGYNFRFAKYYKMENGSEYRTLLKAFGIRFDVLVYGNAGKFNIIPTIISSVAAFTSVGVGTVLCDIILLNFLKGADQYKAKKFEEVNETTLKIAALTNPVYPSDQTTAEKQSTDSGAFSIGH
Potassium voltage-gated channel subfamily KQT member 4, sequence (P56696 whole entry): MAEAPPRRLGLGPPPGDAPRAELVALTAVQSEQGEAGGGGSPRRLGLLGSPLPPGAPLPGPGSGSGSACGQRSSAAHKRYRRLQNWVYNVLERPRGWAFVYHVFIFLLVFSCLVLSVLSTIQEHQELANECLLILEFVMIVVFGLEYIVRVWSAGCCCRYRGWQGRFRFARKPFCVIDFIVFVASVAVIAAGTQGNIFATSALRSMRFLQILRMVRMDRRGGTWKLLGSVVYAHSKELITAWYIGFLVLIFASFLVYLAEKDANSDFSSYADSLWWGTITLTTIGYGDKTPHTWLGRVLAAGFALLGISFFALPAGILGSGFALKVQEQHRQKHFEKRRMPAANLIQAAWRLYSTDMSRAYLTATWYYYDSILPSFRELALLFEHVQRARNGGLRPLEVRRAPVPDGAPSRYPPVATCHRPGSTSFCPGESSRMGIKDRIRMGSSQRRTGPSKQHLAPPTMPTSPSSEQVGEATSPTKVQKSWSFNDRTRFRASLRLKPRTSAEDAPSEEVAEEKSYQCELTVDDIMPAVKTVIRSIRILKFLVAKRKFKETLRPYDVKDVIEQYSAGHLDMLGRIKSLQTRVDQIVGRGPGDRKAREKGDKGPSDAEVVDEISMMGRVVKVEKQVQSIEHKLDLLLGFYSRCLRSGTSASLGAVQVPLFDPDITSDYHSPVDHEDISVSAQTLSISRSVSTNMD

O=C(NCc1cccnc1N1CCOCC1)c1cncc(-c2ccc(OC(F)(F)F)cc2)n1
IC50 [1]: 30 nM

CCN(CC)CC(=O)Nc1c(C)cccc1C [LIDOCAINE]
IC50 [2]: 180000 nM

CCOC(=O)C1=C(COCCN)NC(C)=C(C(=O)OC)C1c1ccccc1Cl (stereo unspecified) [AMLODIPINE]
IC50 [3]: 400 nM

O=c1ccc2c(OCCCCc3ccccc3)c3ccoc3cc2o1
Ratio EC50 [4]: 17 | Ratio EC50 [5]: 17 | Ratio EC50 [6]: 17 | Ratio EC50 [7]: 17

CN[C@@H](C)C/C=C/c1cncc(OC(C)C)c1 [ISPRONICLINE]
EC50 [8]: 106 nM

Cc1ccn(-c2nc(Nc3ccc(F)cc3)c3ncn(C)c3n2)n1
EC50 [9]: 20 nM

Cc1ccc(-c2cc(C(=O)N[C@H](C)c3ccc(F)cn3)cc(-c3ncccc3F)c2)nc1
IC50 [10]: 8000 nM

O=C(O)[C@@H]1C[C@H]2C[C@@H](CCc3nn[nH]n3)CC[C@H]2CN1 [TEZAMPANEL ANHYDROUS]
IC50 [11]: 500 nM | IC50 [12]: 500 nM

N[C@@H](Cn1cc(Cl)c(=O)[nH]c1=O)C(=O)O
EC50 [13]: 2000 nM | EC50 [14]: 2000 nM

NCCC(Oc1ccc(C(F)(F)F)cc1)c1ccccc1 (stereo unspecified) [NORFLUOXETINE]
IC50 [15]: 800 nM

CC(C)(C)c1s[nH]c(=O)c1C[C@H](N)C(=O)O
EC50 [16]: 100 nM

COc1ccc(CNCc2cccc3ccccc23)cc1
IC50 [17]: 1800 nM

COc1ccc(Cl)cc1[C@]1(F)C(=O)Nc2cc(C(F)(F)F)ccc21 [FLINDOKALNER]
EC50 [18]: 2400 nM | EC50 [19]: 2400 nM | EC50 [20]: 2400 nM | EC50 [21]: 352 nM | EC50 [22]: 2400 nM

CCOC(=O)c1ncn2c1[C@@H]1CCCN1C(=O)c1cc(OC)ccc1-2
Ki [23]: 25 nM | Ki [24]: 49 nM | Ki [25]: 27 nM | Ki [26]: 0.45 nM
